This is an account of results in patent US12291504B2 (University of Pittsburgh—Of the Commonwealth System of …, priority 2018, dated 2025).

Test [1] deals with SULT1A3 spin-labeled at Cys 234 (Homo sapiens, UniProt P0DMM9, K234C). In words: Initial-rate parameters, spin-labeled SULT1A3 mutant 234.
Experimental: Covalent Tagging of SULT1A3 Cys Constructs. Labeling of the SULT1A3 Cys constructs was performed as described previously (17,18,21). Briefly, 3-maleimido-PROXYL (spin label) or N-cyclohexylmaleimide (diamagnetic control) was added to an enzyme containing solution at 20-fold excess over reactive Cys. Unreacted Cys was monitored using DNTB (17,18,21); reactions were considered complete when >98% of the Cys was labeled. Reaction conditions: SULT1A3 (50 μM, monomer), 3-maleimido-PROXYL or N-cyclohexylmaleimide (1.0 mM), PAP (0.50 mM), KPO4 (50 mM), pH 7.5, 4±2° C. To prepare samples for NMR, reaction mixtures were dialyzed three times against 40 volumes of PAP (0.50 mM), KPO4 (50 mM), pD 7.4, D2O (>95%), 4±2° C.
Initial-Rate Studies. Initial-rate parameters for the labeled or mutant SULT1A3 constructs were determined using a previously described 1-HP assay (25). […] Reactions were monitored via fluorescence change associated with the conversion of 1-HP to 1-HP-S (λex=325 nm, λem=370 nm). Keq for the 1-HP sulfonation reaction is −250. Given the reaction conditions outlined above, ≥99% of 1-HP is converted to 1-HP-S, and ˜0.4% of PAPS is converted to PAP at equilibrium. […] Reaction progress curves were analyzed to obtain initial-rate parameters as described previously (26,27).
Inhibition studies. Inhibition parameters were determined under conditions identical to those described above (see, Initial-Rate Studies) except that [1-HP] was increased to 5.0 μM (˜61×Km) and inhibitor concentration was varied between 0.20-20×Ki. Ki was obtained using a least-squares fit to the following partial inhibition equation (25,28): v=kcat·(Ki+(1/kcat inh)·[I])/(Ki+[I]), where kcat inh is enzyme turnover at saturating substrates and allosteric inhibitor.
The target in another test is T1, SULT1E1 (Homo sapiens, UniProt P49888).
T1 sequence (P49888 1-294): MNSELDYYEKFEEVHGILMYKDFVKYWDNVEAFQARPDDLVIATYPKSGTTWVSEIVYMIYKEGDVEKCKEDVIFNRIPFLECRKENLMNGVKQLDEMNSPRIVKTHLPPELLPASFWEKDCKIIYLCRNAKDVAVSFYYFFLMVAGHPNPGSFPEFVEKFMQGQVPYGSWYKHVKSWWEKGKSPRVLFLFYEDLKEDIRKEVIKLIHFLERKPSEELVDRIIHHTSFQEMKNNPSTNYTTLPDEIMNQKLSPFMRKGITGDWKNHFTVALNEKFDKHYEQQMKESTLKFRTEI
In words: SULT1E1 inhibition test. In kind it is biochemical. The following applies: at 50 uM.

For the next test, the target named is T2, SULT2A1 (Homo sapiens, UniProt Q06520).
T2 sequence (Q06520 1-285): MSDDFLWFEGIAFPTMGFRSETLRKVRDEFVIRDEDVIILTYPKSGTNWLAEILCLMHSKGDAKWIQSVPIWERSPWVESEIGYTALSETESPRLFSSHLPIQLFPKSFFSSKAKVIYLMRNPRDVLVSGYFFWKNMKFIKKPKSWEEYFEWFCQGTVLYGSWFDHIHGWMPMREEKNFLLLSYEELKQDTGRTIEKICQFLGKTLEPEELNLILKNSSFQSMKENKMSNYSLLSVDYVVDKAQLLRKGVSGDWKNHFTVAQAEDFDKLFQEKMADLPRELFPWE
Kind of test: SULT2A1 inhibition test. In kind it is biochemical. The following applies: at 50 uM.

A further test addresses SULT1A3 (Homo sapiens, UniProt P0DMM9). In words: Dopamine sulfonation by SULT1A3-expressing HME cells. The conditions noted are these: dopamine 100 μM, 24 hours, best-fit titration curve, read-out: EC50, inhibition of dopamine sulfonation. In kind it is cell-based. As for the experimental part: Cells were incubated with 100 μM dopamine and incubation media was sampled for dopamine and dopamine sulfate at the indicated time intervals. The dopamine and dopamine sulfate levels in the SULT1A3 (+) strain are shown as red and blue dots, respectively. Only dopamine (green dots) was detected using the SULT1A3 (−) strain.
HME cells were incubated with dopamine (100 μM) and Compound 12 (at the indicated concentrations) for 24 hours at which time the dopamine (red dots) and dopamine sulfate (blue dots) levels were determined. […] The chromatography was performed using a PFP-HPLC column. […] Further, the data in Table A reveal that Compound 12 is highly specific for the SULT1A3 isoform.
HME cells expressing SULT1A3 were incubated for 24 hours with dopamine (100 μM) and Compound 23 (at the indicated concentrations) at which time the dopamine (red dots) and dopamine sulfate (blue dots) concentrations were determined using the methods associated with FIG. 10B.

Another test addresses Green Monkey (1A3) (Chlorocebus sabaeus, UniProt Z9LO20H8W3). Kind of test: Inhibition of SULT1A3 homologues in different species: Green Monkey. In kind it is biochemical. As for the experimental part:
(§1) Compounds 12, 23 and 25 were also tested for Inhibition of SULT1A3 in different species.
(§2) Inhibition of SULT1A3 Homologues in Different Species. SULT1A3 is only expressed in humans and higher primates. SULT1D1 is the isoform expressed in dogs and rodents that sulfonates neurotransmitters and is most similar to SULT1A3. Three synthesized allosteres (12, 23, and 25) were tested against both 1A3 and 1D1 from different species in order to explore testing in animal models. […] Mice have been engineered such that their SULT1A1/2 enzymes have been knocked out and replaced with the human versions of those isoforms.

Another test has as its target Rhesus Macaque (1A3) (Macaca mulatta, UniProt A0A5F7ZQH3). In words: Inhibition of SULT1A3 homologues in different species: Rhesus Macaque. In kind it is biochemical. As for the experimental part: as §1, §2
The next test addresses T3, Rat (1D1) (Rattus norvegicus, UniProt G3V9R3).
T3 sequence (G3V9R3 1-295): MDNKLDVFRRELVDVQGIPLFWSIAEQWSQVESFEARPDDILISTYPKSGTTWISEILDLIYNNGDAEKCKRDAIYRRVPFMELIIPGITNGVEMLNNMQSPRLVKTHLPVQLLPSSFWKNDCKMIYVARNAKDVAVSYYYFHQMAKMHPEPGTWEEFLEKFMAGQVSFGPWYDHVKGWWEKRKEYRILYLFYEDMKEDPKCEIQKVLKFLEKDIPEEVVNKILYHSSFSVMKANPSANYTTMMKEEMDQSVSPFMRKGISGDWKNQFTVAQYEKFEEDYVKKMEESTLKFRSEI
Kind of test: Inhibition of SULT1A3 homologues in different species: Rat. In kind it is biochemical. As for the experimental part:
as §1, §2

Chain of Green Monkey (1A3) (Z9LO20H8W3 1-295): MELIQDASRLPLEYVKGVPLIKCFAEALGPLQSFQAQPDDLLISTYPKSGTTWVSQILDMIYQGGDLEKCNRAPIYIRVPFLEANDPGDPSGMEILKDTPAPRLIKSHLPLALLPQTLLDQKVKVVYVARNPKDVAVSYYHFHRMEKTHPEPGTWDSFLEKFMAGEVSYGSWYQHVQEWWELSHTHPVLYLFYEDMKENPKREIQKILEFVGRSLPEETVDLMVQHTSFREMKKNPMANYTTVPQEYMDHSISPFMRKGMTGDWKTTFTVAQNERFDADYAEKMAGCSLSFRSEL
Chain of Rhesus Macaque (1A3) (A0A5F7ZQH3 1-295): as the sequence (Z9LO20H8W3 1-295) above, with A7T, V15M, C23Y, R230K, Y247F, A278E counted along it
Chain of SULT1A3 (P0DMM9 whole entry): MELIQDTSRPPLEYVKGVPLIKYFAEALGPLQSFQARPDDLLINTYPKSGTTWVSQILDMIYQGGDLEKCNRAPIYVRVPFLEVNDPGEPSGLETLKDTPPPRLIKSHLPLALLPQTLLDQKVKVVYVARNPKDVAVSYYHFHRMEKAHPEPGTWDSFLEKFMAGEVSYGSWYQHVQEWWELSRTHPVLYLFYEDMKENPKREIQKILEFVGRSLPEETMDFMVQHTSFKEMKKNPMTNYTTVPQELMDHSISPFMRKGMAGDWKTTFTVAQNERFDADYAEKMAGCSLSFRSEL
Chain of SULT1A3 spin-labeled at Cys 234 (P0DMM9 whole entry K234C): as the sequence (P0DMM9 whole entry) above, with K234C counted along it

`CC(C)Cc1ccc2cc(CO)ccc2n1` [Compound 8, (2-Isobutylquinolin-6-yl)methanol] registered an inhibitory constant (Ki) in test [1] of 31 nM.

As for `CC(C)Cc1ccc2cc(CCC(N)=O)ccc2n1` [Compound 12], the “inhibition of SULT1E1” value at SULT1E1 is reported as “no inhibition was detected”. In addition, the “inhibition of SULT2A1” value against SULT2A1 is “no inhibition was detected”. Also, the EC50 at SULT1A3 was found to be 250 ± 87 nM. The “Green Monkey (1A3) % inh” value on Green Monkey (1A3) is recorded as 71 (3) %. Further, the inhibition constant (Ki) on Green Monkey (1A3) (parentheses one standard error) was determined as 170 nM; on Rhesus Macaque (1A3) (parentheses one standard error), 38 nM; on Rat (1D1) (parentheses one standard error) it was 2500 nM. Moreover, the “Rhesus Macaque (1A3) % inh” value on Rhesus Macaque (1A3) is on record as 97 (2) %. At Rat (1D1), the “Rat (1D1) % inh” value was 33 (4) %.

One may read the Ki as the dissociation constant of the complex between target and ligand, obtained from inhibition or displacement. Broadly, the EC50 is the midpoint of the concentration-response curve.
